According to BigSolDB 2.1:

CCCCCCCCCCCC[N+](C)(C)CCOc1ccccc1.[Br-]
solubility (mole fraction)
Details | 283.15 K | 288.15 K | 293.15 K | 298.15 K | 303.15 K | 308.15 K | 313.15 K | 318.15 K | 323.15 K
in DMAc | 0.0168 | 0.0216 | 0.0306 | 0.0416 | 0.0492 | 0.0659 | 0.0786 | 0.105 | 0.121
in DMF | 0.0238 | 0.0292 | 0.039 | 0.0467 | 0.0609 | 0.0714 | 0.0861 | 0.115 | 0.132
in DMSO | – | – | 0.037 | 0.045 | 0.0551 | 0.0668 | 0.0826 | 0.103 | 0.124
in NMP | 0.0215 | 0.0284 | 0.042 | 0.0531 | 0.0702 | 0.0854 | 0.108 | 0.137 | 0.169
in acetonitrile | 0.00445 | 0.00562 | 0.00743 | 0.00991 | 0.0135 | 0.0188 | 0.0277 | 0.0415 | 0.0625
in ethanol | 0.0832 | 0.107 | 0.13 | 0.157 | 0.179 | 0.204 | 0.227 | 0.251 | 0.275
in isobutanol | – | 0.092 | 0.118 | 0.145 | 0.175 | 0.196 | 0.224 | 0.248 | 0.287
in isopropanol | 0.0234 | 0.043 | 0.07 | 0.105 | 0.139 | 0.17 | 0.199 | 0.228 | 0.258
in n-butanol | 0.0833 | 0.108 | 0.134 | 0.157 | 0.181 | 0.224 | 0.263 | 0.306 | 0.346
in n-pentanol | 0.0801 | 0.108 | 0.13 | 0.164 | 0.192 | 0.232 | 0.272 | 0.329 | 0.373
in n-propanol | 0.0834 | 0.107 | 0.131 | 0.157 | 0.181 | 0.211 | 0.238 | 0.263 | 0.287
in tert-butanol | – | – | – | 0.0866 | 0.127 | 0.165 | 0.198 | 0.241 | 0.273
